# Test results: patent publication US9237750B2, “Ornidazole and related compounds for use as herbicides” (RAMOT AT TEL-AVIV UNIVERSITY LTD., priority 2012, dated 2016)
# Tests used:
# [1] = target: triose phosphate isomerase (Homo sapiens, UniProt P60174); details: glycolytic triose phosphate isomerase; cited from earlier work
# [2] = Stability in BG-11 medium lacking cells (LC-MS); format: physicochemical; details: 0.1 mM, dark or light, four days
# Experimental: Ornidazole (molecular mass 220 and 222 due to two isotopes of chlorine) or degradation products were sought by LC-MS. The chromatograms of samples from the first and fourth days are shown in FIG. 7B and FIG. 7C, respectively. The retention time and molecular mass of the isolated molecules are designated.
# The concentrations of Ornidazole and its degradation product in the medium were determined during the growth of the cyanobacterium Anabaena PCC7120 and in media lacking cyanobacteria in the dark or under illumination. Ornidazole at 0.1 mM concentration was added to three growth tubes containing BG-11 medium: one growth tube was kept in the dark, the second under light conditions of 60 μmol photons m^−2 sec^−1 and the third tube, to which Anabaena cells were added, was also kept under similar light conditions. Samples from each tube were taken every day, separated on a C18 reverse phase HPLC column, and Ornidazole (molecular mass 220 and 222 due to two isotopes of chlorine) or degradation products were sought by LC-MS. A degradation product of molecular mass 184, identified as C7H9N3O3, was found in all three tubes.
# [3] = target: T1, Triose phosphate isomerase (Nostoc sp., UniProt Q8YP17); assay: Enzyme activity in lysed Anabaena spheroplasts treated with 0 to 2 mM Ornidazole; format: cell-based, Anabaena PCC7120; parameters: endogenous in cells; host or cells: Anabaena PCC7120 spheroplasts, lysed after treatment; details: 30° C.
# T1 sequence (Q8YP17 1-241): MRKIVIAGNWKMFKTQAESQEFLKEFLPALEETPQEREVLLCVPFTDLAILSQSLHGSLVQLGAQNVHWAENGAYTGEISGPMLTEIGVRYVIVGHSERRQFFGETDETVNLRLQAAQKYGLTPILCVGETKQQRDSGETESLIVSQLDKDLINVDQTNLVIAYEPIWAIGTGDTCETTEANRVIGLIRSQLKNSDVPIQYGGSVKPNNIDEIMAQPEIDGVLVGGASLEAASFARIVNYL
# Experimental: Filaments of Anabaena PCC7120 were incubated in a medium containing: 0.5 M sucrose, 10 mM MgCl2, 5 mM Potassium Phosphate, 10 mM MES buffer pH 6.9, 1% (weight/volume) BSA and 1 mg/ml Lysozyme for 30 to 60 min. at 30° C. The spheroplasts yield was monitored by lysis in hypotonic solution. The spheroplasts were spun down and resuspended in a medium containing 0.4 M Mannitol, 10 mM MgCl2, 5 mM Potassium Phosphate and 20 mM Hepes buffer pH 8.0.
# To further examine the effect of Ornidazole on these enzymes, the rate of photosynthesis of Anabaena spheroplasts, incubated in a spheroplast medium under saturating light intensity and CO2 concentrations in the presence of 0 to 2 mM Ornidazole at 30° C. was determined, using an O2 electrode. GAPDH and triose-phosphate isomerase activities were determined spectrophotometrically in the spheroplasts upon lysis (200 to 300 μg chlorophyll) using a reaction medium as described in the Materials and Methods section hereinabove.
# A clear correlation was found between the reduced activity of triose phosphate isomerase and the declined rate of photosynthesis.
# [4] = target: T2, Rubisco (Nostoc sp., UniProt P00879); assay: Calvin cycle enzyme activity; format: biochemical, Anabaena; details: 1 mM Ornidazole
# T2 construct: endogenous in cells; host or cells: Anabaena PCC7120 extract
# Experimental: (§1) Rubisco was assayed as described by Marcus et al. (2005, ibid) and Snir et al. (2006, ibid). Phospho-ribulose kinase was assayed by conversion of phospho-ribulose to RuBP, which was determined by Rubisco dependent carboxylation with radiolabeled ^14CO2. Plant or cyanobacterial extract was incubated with medium containing 50 mM Hepes pH 8, 10 mM MgCl2, 20 mM NaH^14CO3, 1 mM DTT, 0.5 mM ribose-5-phosphate, ribose-5-phosphate isomerase and activated Rubisco. Phosphoglycerate kinase, GAPDH, FBPase and SBPase were determined as described by Leegood (Leegood R C., 1990. In: Methods in plant biochemistry, Vol 3, pp 15-37, Academic Press).
# (§2) However, analysis of Ornidazole effect on various enzymes of the Calvin cycle in Anabaena including ribulose-bisphosphate carboxylase/oxygenase (Rubisco), phosphoglycerate kinase, glyceraldehyde-3-phosphate dehydrogenase (GAPDH), triose-phosphate isomerase, aldolase, fructose and sedoheptulose bisphosphatase and phosphoribulose kinase, has shown inhibition of GAPDH and triose-phosphate isomerase (Table 2).
# [5] = system: Fructose bisphosphatase; assay: Calvin cycle enzyme activity; format: biochemical, Anabaena; details: 1 mM Ornidazole
# Experimental: as §1, §2
# [6] = target: T3, Phosphglycerate kinase (Nostoc sp., UniProt Q8YPR1); assay: Calvin cycle enzyme activity; format: biochemical, Anabaena; details: 1 mM Ornidazole
# T3 construct: endogenous in cells; host or cells: Anabaena PCC7120 extract
# T3 sequence (Q8YPR1 1-400): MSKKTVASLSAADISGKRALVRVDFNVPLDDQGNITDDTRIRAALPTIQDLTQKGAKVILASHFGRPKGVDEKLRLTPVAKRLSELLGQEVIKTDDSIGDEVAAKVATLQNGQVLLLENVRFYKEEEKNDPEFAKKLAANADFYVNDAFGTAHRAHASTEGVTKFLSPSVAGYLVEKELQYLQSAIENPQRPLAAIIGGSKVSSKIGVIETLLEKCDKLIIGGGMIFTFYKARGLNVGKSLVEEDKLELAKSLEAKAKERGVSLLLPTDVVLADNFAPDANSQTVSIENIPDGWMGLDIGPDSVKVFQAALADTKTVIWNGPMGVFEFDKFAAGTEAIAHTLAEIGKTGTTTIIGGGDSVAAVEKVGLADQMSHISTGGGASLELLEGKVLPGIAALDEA
# Experimental: as §1, §2
# [7] = system: Aldolase; assay: Calvin cycle enzyme activity; format: biochemical, Anabaena; details: 1 mM Ornidazole
# Experimental: as §1, §2
# [8] = system: GAPDH; assay: Calvin cycle enzyme activity; format: biochemical, Anabaena; details: 1 mM Ornidazole
# Experimental: as §1, §2
# triose phosphate isomerase, sequence (P60174 whole entry, species assumed): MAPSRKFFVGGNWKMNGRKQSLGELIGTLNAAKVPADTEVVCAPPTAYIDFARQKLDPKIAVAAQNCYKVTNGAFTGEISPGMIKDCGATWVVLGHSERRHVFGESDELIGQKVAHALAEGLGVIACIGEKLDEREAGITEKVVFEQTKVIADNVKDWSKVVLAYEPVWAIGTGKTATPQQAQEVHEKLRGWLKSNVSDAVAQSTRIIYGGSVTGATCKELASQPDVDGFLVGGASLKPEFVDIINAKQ
structure (smiles),measurement,setting,value
"Cc1ncc([N+](=O)[O-])n1CC(O)CCl (stereo not drawn) [Ornidazole, 1-chloro-3-(2-methyl-5-nitro-1H-imidazol-1-yl)propan-2-ol]",inhibition of enzyme activity,[1],inhibits the activity
same,Ornidazole concentration in medium,[2],remained stable
same,inhibition of triose phosphate isomerase compared to GAPDH,[3],inhibited at lower concentrations of Ornidazole and in a concentration-dependent manner
same,Activity,[4],74.6 μmol × mg^−1chl × h^−1
same,Activity,[5],71 μmol × mg^−1chl × h^−1
same,Activity,[6],57 μmol × mg^−1chl × h^−1
same,Activity,[7],120 μmol × mg^−1chl × h^−1
same,Activity,[8],1.77 μmol × mg^−1chl × h^−1
same,inhibition of enzyme activity,[8],98%-100
